Data from patent publication US20060073099A1, “Treatment screening methods” (priority 2004, published 2006).

System: Macaca mulatta (Rhesus monkey) exposed to a 6 Gy dose of γ-radiation (LD50/30)
Method: Treatment of whole body lethal radiation and characterization of mortality surrogate markers. Two groups of 10 Macaca mulatta (Rhesus monkey) were exposed to a 6 Gy dose of γ-radiation from a ^60Co source. This dose is an LD50/30 dose for this species. […] The animals in each group were treated once per day for 5 consecutive days beginning on the day the animals were exposed to radiation. The animals consisted of 12 males and 8 females with a body weight range of about 2.5-5.5 kg at the onset of treatment. The age range was 1.75-5.0 years at the onset of treatment.
Twelve male and eight female rhesus monkeys were assigned to the study. Each group comprised of seven male and three female animals. During the acclimation period, animals were assigned to their respective dose groups by randomization based on the absolute neutrophil count. The average of 3 pretreatment absolute neutrophil counts were used for each animal.
The test article (100 mg/mL AED) and vehicle or control article in aliquots of 10 mL. Test article was an aqueous suspension in vehicle. The vehicle article consists of a solution of sodium shloride (0.9% w/v), carboxymethylcellulose (0.5% w/v), polysorbate 80 (2% v/v), benzalkonium chloride (0.02% v/v) and sodium phosphate (10 mM, pH 6.5). Immediately prior to drawing into a syringe, the test article formulation was briefly vortexed to uniformly distribute sedimented test article. Once drawn into a syringe, the test article was administered within 10 minutes. Just prior to injection, the syringe containing the test article was rotated end-over-end to uniformly disperse the compound.
Whole body radiation. The animals were exposed to ionizing as follows. Dosimetry measurements using phantoms, the dose rate and duration of irradiation and the actual time of irradiation for each individual animal was recorded. Animals were fasted overnight prior to whole-body irradiation and fed upon return to the housing facility.
The animals received a midline treatment dose of 600 cGy. The dose rate of the ^60Co gamma source was about 60 cGy per minute and the actual rate was recorded for each animal. To obtain a homogenous dose distribution, the radiation treatment was divided in two parts. First, the animal received half of the dose by anteroposterior irradiation. The second half of the dose was delivered by posteroanterior irradiation. […] The radiation dose was calibrated using an acrylic phantom placed in the same experimental set up that was used for animal irradiation.

C[C@]12CC[C@H]3[C@@H](CC=C4C[C@@H](O)CC[C@@]43C)[C@@H]1CC[C@@H]2O [3β,17β-dihydroxyandrost-5-ene]
animals survived (600 cGy 60Co whole body γ-irradiation, 15 mg/kg i.m. once per day for 5 consecutive days, first injection 2-3 hours after irradiation, 10 animals, observed to day 40-41): 9 of 10 | days of severe thrombocytopenia (less than 20,000 platelets/μL) experienced collectively by the group (600 cGy whole body irradiation, 15 mg/kg i.m. daily x5, 10 animals, p=0.009 by exact test of homogeneity vs vehicle (51 days)): 32 days | median days of febrile severe neutropenia (600 cGy whole body irradiation, 15 mg/kg i.m. daily x5, 95% CI 0,2, p=0.037 by exact log rank test vs vehicle (median 5 days)): 0 days | Mortality (600 cGy whole body irradiation, 15 mg/kg i.m. daily x5, Fisher's exact test mid p=0.073 vs two combined control groups (45% mortality)): 10% | survivors having febrile severe neutropenia (core body temperature >40.4° C. and absolute neutrophil count less than 500 cells/μL) at some time during the protocol (600 cGy whole body irradiation, 15 mg/kg i.m. daily x5, the one non-survivor did not have the condition): 2 animals
